Laboratory results as given in patent US20250387481A1, “PRE-TREATED T CELLS FOR USE AS A MEDICAMENT” (STICHTING HET NEDERLANDS KANKER INSTITUUT-ANTONI VAN …, priority 2022, published 2025).

Key:
[1] = tested on: A375 (melanoma), EGL1 (hepatobiliary cancer) and MDA-MB-231 (breast cancer); KB1P organoids; assay: Co-culture of cancer cells or KB1P organoids with T cells pretreated with vinblastine; assay type: cell-based, human; details: Jurkat or mouse splenic T cells pretreated with vinblastine; MTT, cleaved caspase 3
From the text: Data are shown for three different cell lines derived from human cancer, namely A375 (melanoma), EGL1 (hepatobiliary cancer) and MDA-MB-231 (breast cancer). Organoid apoptosis (determined by cleaved caspase 3 staining) in breast cancer mouse KB1P organoids following co-culture with mouse splenic T cells pretreated with control, vinblastine or colchicine is also shown in FIG. 18. Data are presented as mean with SEM. N=3 biological repeats per repeat.

KB1P organoids = assay: Co-culture of pre-treated splenic T cells with KB1P organoids (MTT, cleaved-caspase 3); assay type: cell-based, mouse; details: LCKi 10 μmol/L
[2] = tested on: MMTV-PyMT organoids expressing OVA; assay: Co-culture of OT I T cells with MMTV-PyMT organoids expressing OVA (cleaved-caspase 3); assay type: cell-based, mouse; details: LCKi 10 μmol/L
Experimental: Experiments were approved by the Animal Welfare Committee of the Netherlands Cancer Institute and were performed in accordance with national guidelines. Mice were housed in individually ventilated cage (IVC) systems under specific pathogen-free conditions and received chow and water ad libitum. FVB/NRj females (Janvier), C57BL/6-Tg (TcraTcrb) 1100Mjb/J females (OT I mice, Jackson laboratory), and ROSA26mTmG FVB females (NKI) were used at 8-20 weeks of age at the time of fat pad injection of tumor organoids or spleen isolation.
For T cells isolated from mouse mammary tumors, T cells were directly co-cultured with tumor organoids after FACS isolation. For T cells isolated from the spleen, T cells were treated for 72 h with PBS or with docetaxel (docetaxel 10 nmol/L), in the presence or absence of an LCKi (10 μmol/L, Merck Millipore, Cat. No. 213743-31-8). To evaluate the docetaxel-specificity of our observations, T cells were treated with paclitaxel 10 nmol/L or carboplatin 50 μmol/L for 72 h. Subsequently, T cells were collected and washed 3 times in PBS to remove residual chemotherapy or LCKi.
Organoids were fixed in 4% paraformaldehyde in PBS for 20 min at room temperature, followed by permeabilization in 0.2% TritonX-100 in PBS for 15 min at room temperature. […]

Compound: CC[C@]1(O)C[C@@H]2CN(CCc3c([nH]c4ccccc34)[C@@](C(=O)OC)(c3cc4c(cc3OC)N(C)[C@H]3[C@@](O)(C(=O)OC)[C@H](OC(C)=O)[C@]5(CC)C=CCN6CC[C@]43[C@@H]65)C2)C1 [Vinblastine, vinblastine]
- T cell mediated cancer cell killing [1]: induces T cell mediated cancer cell killing

Compound: Nc1ncnc2c1c(-c1ccc(Oc3ccccc3)cc1)cn2C1CCCC1 [LCKi]
- effect of LCK inhibition on docetaxel-increased cytotoxic activity of CD4 or CD8 T cells (KB1P organoids): did not impair
- killing of OVA-expressing organoids by OT I T cells [2]: reduced killing
